Test system: H292
Experiment: Cell viability assay (CellTiter-Meiluncell Luminescent), tumor cell proliferation, H292
Settings: Homo sapiens, NCI-H292, 96 h; for inhibition at 0.01 µM: read-out: Inhibition Rate at 10 nM (%); for inhibition at 0.5 µM: read-out: Inhibition Rate at 500 nM (%)
Experimental: The tumor cells used herein were cultured in a cell culture medium listed in table 2 at 37°C in an incubator with 5% CO2. Prior to experimentation, all cell lines used were correctly identified by STR profiling, and tested negative for mycoplasma contamination using a mycoplasma detection kit through routine screenings.
On the following day, the test compounds of the present disclosure were subjected to serial dilution. […] Subsequently, 0.5 µL of the test compound dilution was transferred into the 96-well plate containing the cells, with each well containing 100 µL of cell culture medium. […] Into the 96-well plate, the diluted test compounds and corresponding detection reagents were added, resulting in final test compound concentrations of 500 nM and 10 nM, respectively. The experimental procedure is described below using the diluted 2 µM test compound as an example.
After the cells were treated with the compounds of the present disclosure for a specified period, the cell viability assay reagent was added to the culture medium according to the kit's instructions to determine cell viability. […] All controls were treated using the same procedure as the compounds of the present disclosure. The growth inhibition curves for the compounds of the present disclosure were plotted using Prism GraphPad software, and the IC50 values were calculated therefrom.

Row | SMILES | inhibition at 0.01 µM | inhibition at 0.5 µM
1 | O=C1CCN(N2C(=O)c3ccc(CN4CCC(c5ncnc6sc7c(c56)CCC7)CC4)cc3C2=O)C(=O)N1 [GT-08425, 5-((4-(6,7-dihydro-5H-cyclopenta[4,5]thieno[2,3-d]pyrimidin-4-yl)piperidin-1-yl)methyl)-2-(2,4-dioxotetrahydropyrimidin-1(2H)-yl)isoindoline-1,3-dione] | 15 to 20% | 5 to 10%
2 | Cc1nc(C2CCN(Cc3ccc4c(c3)C(=O)N(N3CCC(=O)NC3=O)C4=O)CC2)c2c3c(sc2n1)CCC3 [GT-08426, 2-(2,4-dioxotetrahydropyrimidin-1(2H)-yl)-5-((4-(2-methyl-6,7-dihydro-5H-cyclopenta[4,5]thieno[2,3-d]pyrimidin-4-yl)piperidin-1-yl)methyl)isoindoline-1,3-dione] | 20 to 40% | 20 to 40%
3 | O=C1CCN(N2C(=O)c3ccc(CN4CCN(c5nc(N6CCOCC6)c6sccc6n5)CC4)cc3C2=O)C(=O)N1 [GT-08456, 2-(2,4-dioxotetrahydropyrimidin-1(2H)-yl)-5-((4-(4-morpholinothieno[3,2-d]pyrimidin-2-yl)piperazin-1-yl)methyl)isoindoline-1,3-dione] | 5 to 10% | 20 to 40%
4 | CC1(C)[C@@H]2CC[C@]1(CS(=O)(=O)NCc1ccc3c(c1)CN(N1CCC(=O)NC1=O)C3=O)C(=O)C2 [GT-08133, 1-((1R,4R)-7,7-dimethyl-2-oxobicyclo[2.2.1]heptan-1-yl)-N-((2-(2,4-dioxotetrahydropyrimidin-1(2H)-yl)-1-oxoisoindolin-5-yl)methyl)methanesulfonamide] | 15 to 20% | 20 to 40%
5 | O=C1CCN(N2Cc3cc(CN4CC(n5cnc6cc(F)ccc65)C4)ccc3C2=O)C(=O)N1 [GT-07723, 1-(5-((3-(5-fluoro-1H-benzo[d]imidazol-1-yl)azetidin-1-yl)methyl)-1-oxoisoindolin-2-yl)dihydropyrimidine-2,4(1H,3H)-dione] | 15 to 20% | 5 to 10%
6 | CC(C)c1cc2c(C3=CCN(Cc4ccc5c(c4)C(=O)N(N4CCC(=O)NC4=O)C5=O)CC3)ncnc2s1 [GT-08429, 2-(2,4-dioxotetrahydropyrimidin-1(2H)-yl)-5-((4-(6-isopropylthieno[2,3-d]pyrimidin-4-yl)-3,6-dihydropyridin-1(2H)-yl)methyl)isoindoline-1,3-dione] | 20 to 40% | 20 to 40%
7 | Cc1nc(N2CCN(Cc3ccc4c(c3)C(=O)N(N3CCC(=O)NC3=O)C4=O)CC2)c2ccsc2n1 [GT-08100, 2-(2,4-dioxotetrahydropyrimidin-1(2H)-yl)-5-((4-(2-methylthieno[2,3-d]pyrimidin-4-yl)piperazin-1-yl)methyl)isoindoline-1,3-dione] | 5 to 10% | 10 to 15%

— patent publication EP4722207A1, “OXOISOINDOLINYL-SUBSTITUTED TETRAHYDROPYRIMIDINEDIONE DERIVATIVE AND USE THEREOF” (Gluetacs Therapeutics (Shanghai) Co., Ltd., priority 2023, dated 2024)
